{
  "source": "patent US20050272687A1",
  "about": "“Stable S-adenosyl-l-methionine” (priority 2004, published 2005)",
  "origin": "cited, not measured here",
  "key": {"[1]": {"system": "S-adenosyl-1-methionine-dependent methyltransferases"}, "[2]": {"system": "nucleolar 2-O-methyltransferase"}, "[3]": {"details": "same conditions as in example 10 (room temperature, light, closed bottle), after 4 months"}, "[4]": {"details": "in vivo"}, "[5]": {"details": "during the course of the clinical trial"}, "[6]": {"system": "alcoholic liver cirrhosis", "details": "oral; as compared with a placebo treated group"}},
  "data": [
    {"smiles": "C[S@@+](CC[C@@H](N)C(=O)O)C[C@H]1O[C@@H](n2cnc3c(N)ncnc32)[C@H](O)[C@@H]1O", "note": "(racemic) [(+)-SAM, (R,S)-S-adenosyl-1-methionine]", "values": [
      {"measurement": "inhibition of enzyme-catalyzed transmethylation reactions", "setting": "[1]", "value": "potent inhibitor"}
    ]},
    {"smiles": "C[S@@+](CC[C@H](N)C(=O)O)C[C@H]1O[C@@H](n2cnc3c(N)ncnc32)[C@H](O)[C@@H]1O", "note": "[(S,S)-S-adenosyl-1-methionine]", "values": [
      {"measurement": "tightness of enzyme binding relative to (R,S)-S-adenosyl-1-methionine", "setting": "[2]", "value": 10, "unit": "fold"}
    ]},
    {"smiles": "C[S+](CC[C@H](N)C(=O)O)C[C@H]1O[C@@H](n2cnc3c(N)ncnc32)[C@H](O)[C@@H]1O.C[S+](CC[C@H](N)C(=O)O)C[C@H]1O[C@@H](n2cnc3c(N)ncnc32)[C@H](O)[C@@H]1O.O=S(=O)([O-])CCCCS(=O)(=O)[O-]", "note": "(stereo partly drawn) [S-adenosyl-1-methionine 1,4 butanedisulfonate]", "values": [
      {"measurement": "deterioration", "setting": "[3]", "value": 43.9, "unit": "%"},
      {"measurement": "oral absorption compared with other salts", "setting": "[4]", "value": "better absorbed orally than any other salts"}
    ]},
    {"smiles": "C[S+](CC[C@H](N)C(=O)O)C[C@H]1O[C@@H](n2cnc3c(N)ncnc32)[C@H](O)[C@@H]1O.Cc1ccc(S(=O)(=O)[O-])cc1", "note": "(stereo partly drawn) [S-adenosyl-1-methionine tosylate]", "values": [
      {"measurement": "deterioration", "setting": "[3]", "value": 92.9, "unit": "%"}
    ]},
    {"smiles": "C[S+](CC[C@H](N)C(=O)[O-])C[C@H]1O[C@@H](n2cnc3c(N)ncnc32)[C@H](O)[C@@H]1O", "note": "(stereo partly drawn) [S-adenosyl-1-methionine]", "values": [
      {"measurement": "(R,S) S-adenosyl-1-methionine share after epimerization", "setting": "[5]", "value": 55, "unit": "%"},
      {"measurement": "(S,S) S-adenosyl-1-methionine share after epimerization", "setting": "[5]", "value": 45, "unit": "%"},
      {"measurement": "overall mortality and/or progression to liver transplant", "setting": "[6]", "value": 29, "unit": "% vs 12%"}
    ]},
    {"smiles": "CC(C)NCC(O)COc1cccc2ccccc12", "note": "(stereo not drawn) [propranolol]", "values": [
      {"measurement": "potency of L-form relative to D-enantiomer", "setting": "beta-adrenergic", "value": 100, "unit": "times"}
    ]}
  ]
}
